Laboratory results taken from US20150306096A1, “8'-HYDROXY-DIHYDROERGOTAMINE COMPOUNDS AND COMPOSITIONS” (MAP Pharmaceuticals, Inc., priority 2012, published 2015).

What was measured:
Somatostatin (SST1~SST5) = assay: GTPγS assay; format: biochemical, human; conditions: Somatostatin receptors
Procedure: (§1) Additional receptor agonist/agonist activity assessments were performed using the 8′-OH DHE test compound. Table 12 contains a summary of the cell lines (CHO-K1/HEK293 transfected with relevant human receptor) and the assays performed to detect any agonist or antagonist activity.
Reagents used were the following: Assay buffer (20 mM HEPES, pH 7.4; 100 mM NaCl; 10 mg/mL saponin; 30 mM MgCl2); Membranes (recombinant human receptor membrane extracts were thawed on ice and diluted in assay buffer to give […] (10 μgμL) and kept on ice); GDP (diluted in assay buffer to give 30 μM solution (3 μM final concentration); beads (PVT-WGA (Amersham, RPNQ001), diluted in assay buffer at 25 mg/mL (0.25 mg/10 μL)); GTPγ^35S (Perkin Elmer, NEG030X), diluted in assay buffer to give 0.1 nM (final concentration); and ligand (agonist/antagonist diluted in assay buffer).
Membranes were mixed with GDP (1:1) and incubated for at least 15 minutes on ice. In parallel, GTPγ^35S was mixed with the beads (1:1) just before starting the reaction. […] The plates were then centrifuged for 10 minutes at 2,000 rpm and incubated at RT for 1 hour and counted for 1 min/well with a Perkin Elmer TopCount reader.

[1] = tested on: Cholecystokinin (CCK1/CCK2); assay: Aequorin assay; format: cell-based, human; conditions: CCK receptors
Procedure: as §1
(§2) Aequorin assays were conducted to monitor activity for 8′-OH DHE against the receptors indicated in Table 12 above (except for mGlu3 and mGlu5). CHO-K1 cells co-expressing mitochondrial apoaequorin and the recombinant human receptor of interest were grown to mid-log phase in culture media without antibiotics and then detached with PBS-EDTA, centrifuged and resuspended in assay buffer (DMEMHAM's F12 with HEPES, without phenol red+0.1% BSA, protease free) at a concentration of 1×10^6 cell/mL. Cells were incubated at RT for at least 4 hours with coelenterazine h. Reference agonistant/agonist was tested to evaluate the performance of the assay and to determine EC50/IC50.
(§3) 50 μL of the cell suspension was mixed with 50 μL of test or reference agonist in a 96-well plate. The resulting emission of light was recorded using Hamamatsu Functional Drug Screening System 6000 (FDSS 6000) luminometer. For antagonist testing, 100 μL of the reference agonist at its EC80 was injected on the mix of cells and test compound, following an incubation of 15 minutes after the first injection. The resulting emission of light was recorded using the FDSS 6000 luminometer. To standardize the emission of recorded light (and determine of the ‘100% signal’) across plates and across different experiments, some wells contained 100 μM digitonin or a saturating concentration of ATP (20 μM).

[2] = tested on: VIP/PACAP (PAC1/VPAC1/VPAC2); assay: Aequorin assay; format: cell-based, human; conditions: VIP/PACAP receptors
Procedure: as §1, §2, §3

Orexin (OX1/OX2) = assay: Aequorin assay; format: cell-based, human; conditions: Orexin receptors
Procedure: as §1, §2, §3

Neurokinin (NK1/NK2/NK3) = assay: Aequorin assay; format: cell-based, human; conditions: Neurokinin receptors
Procedure: as §1, §2, §3

Calcitonin (CGRP) = biological target: T1, Calcitonin (CGRP) (Homo sapiens, UniProt O60894+Q16602); assay: Aequorin assay; format: cell-based; conditions: CGRP receptor
T1 construct: expressed in transfected cells; host or cells: CHO-K1 with apoaequorin (CHO-AEQ)
T1 sequence (Q16602 23-461): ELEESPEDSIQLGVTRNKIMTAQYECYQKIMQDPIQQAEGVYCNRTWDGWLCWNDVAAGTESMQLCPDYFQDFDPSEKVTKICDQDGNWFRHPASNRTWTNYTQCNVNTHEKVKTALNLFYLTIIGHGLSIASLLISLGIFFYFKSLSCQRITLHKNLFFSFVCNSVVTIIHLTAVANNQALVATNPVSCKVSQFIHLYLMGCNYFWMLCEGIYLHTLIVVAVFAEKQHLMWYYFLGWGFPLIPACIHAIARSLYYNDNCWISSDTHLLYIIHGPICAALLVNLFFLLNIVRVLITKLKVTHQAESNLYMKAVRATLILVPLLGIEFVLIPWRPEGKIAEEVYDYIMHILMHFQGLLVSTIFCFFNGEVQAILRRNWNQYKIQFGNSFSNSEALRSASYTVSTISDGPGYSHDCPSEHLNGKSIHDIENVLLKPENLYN
T1 sequence (O60894 27-148 partner): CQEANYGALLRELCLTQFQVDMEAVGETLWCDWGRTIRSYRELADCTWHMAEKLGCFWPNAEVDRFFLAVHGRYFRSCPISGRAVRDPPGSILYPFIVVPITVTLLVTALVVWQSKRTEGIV
Procedure: as §1
Aequorin assays were conducted to monitor activity for 8′-OH DHE against the receptors indicated in Table 12 above (except for mGlu3 and mGlu5). CHO-K1 cells co-expressing mitochondrial apoaequorin and the recombinant human receptor of interest were grown to mid-log phase in culture media without antibiotics and then detached with PBS-EDTA, centrifuged and resuspended in assay buffer (DMEMHAM's F12 with HEPES, without phenol red+0.1% BSA, protease free) at a concentration of 1×10^6 cell/mL. Cells were incubated at RT for at least 4 hours with coelenterazine h. […]
50 μL of the cell suspension was mixed with 50 μL of test or reference agonist in a 96-well plate. The resulting emission of light was recorded using Hamamatsu Functional Drug Screening System 6000 (FDSS 6000) luminometer. […] The resulting emission of light was recorded using the FDSS 6000 luminometer. To standardize the emission of recorded light (and determine of the ‘100% signal’) across plates and across different experiments, some wells contained 100 μM digitonin or a saturating concentration of ATP (20 μM).

Measured: Activity (Agonism: EC50; Antagonism: IC50)

CN1C[C@H](C(=O)N[C@]2(C)O[C@@]3(O)[C@@H]4CCC(O)N4C(=O)[C@H](Cc4ccccc4)N3C2=O)C[C@@H]2c3cccc4[nH]cc(c34)C[C@H]21 (stereo partly drawn) [8′-OH DHE, 8′-Hydroxy-Dihydroergotamine]
Inactive: all assays above
